Data set [1] addresses T1, recombinant full-length WRN protein (1-1432) (Homo sapiens, UniProt Q14191).
T1 construct: recombinant full-length WRN protein (1-1432)
Briefly: WRN unwinding activity, fluorogenic 384-well assay (Example A). The format is biochemical. The note with it: WRN unwinding activity, 4 hr; Table 2; read-out: 4 hr UNW pIC50 (converted). An outline of the steps: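 200 pM enzyme (2× stock) preincubated with compound 4 h at ambient temperature, then 200 μM ATP and 12 nM quenched TAMRA-labelled dsDNA (2× stocks) added for 60 min; EDTA-quenched. Buffer 25 mM Tris pH 8.0, 5 mM NaCl, 2 mM MgCl2. Fluorescence at 525/598 nm; pIC50 from four-parameter fit.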

Data set [2] in a line: Cell culture media unbound percentage and stability by rapid equilibrium dialysis (Example C). The note with it: bovine, cell assay medium (RPMI-1640 with 10% fetal bovine serum), pH 7.4, rapid equilibrium dialysis, 4 hours at 37° C., read-out: Cell Culture Media Binding (% unbound). The format is in vitro ADME. An outline of the steps:
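Compound spiked into cell culture medium at nominal 1 μM and dialysed against PBS (100 mM sodium phosphate + 150 mM NaCl, pH 7.4) by rapid equilibrium dialysis, triplicate, 4 h at 37° C with shaking. LC-MS/MS peak area ratios gave percent unbound (receiver/donor) and percent stability (240 min vs 0 min).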

Data set [3] deals with SW48 human colorectal cancer cells. Put plainly: Calculated free drug potency in SW48 cell assay, corrected with media free fraction (Example C). In kind it is cell-based. The note with it: Homo sapiens, SW48, SW48 pCC50 corrected with measured free fraction in cell assay media. In short, it runs like this: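 Compound spiked at nominal 1 μM into cell assay medium and dialysed against PBS (100 mM sodium phosphate, 150 mM NaCl, pH 7.4) by rapid equilibrium dialysis, 4 h, 37 °C, shaking. Percent unbound from LC-MS/MS peak area ratios (240 min vs 0 min); cell assay concentrations corrected by this free fraction.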

Data set [4] concerns SW48 human colorectal cancer cells (MSI-H cancer cells). Put plainly: SW48 cell viability, CellTiter-Glo, 120 hours (Example B). The following applies: Homo sapiens. (In general: In ATP-based viability assays light output follows the ATP content of the culture.)
[5] abbreviates: SW48, 120 h, read-out: SW48 pCC50, SW48 cell viability, 120 hours incubation (converted), Table 2.
[6] abbreviates: SW48, read-out: SW48 pCC50, measured potency from Example B, as repeated in Table 3 (converted).

Read-outs that look alike come from different tables or passages of the source.

T1 sequence (Q14191 whole entry): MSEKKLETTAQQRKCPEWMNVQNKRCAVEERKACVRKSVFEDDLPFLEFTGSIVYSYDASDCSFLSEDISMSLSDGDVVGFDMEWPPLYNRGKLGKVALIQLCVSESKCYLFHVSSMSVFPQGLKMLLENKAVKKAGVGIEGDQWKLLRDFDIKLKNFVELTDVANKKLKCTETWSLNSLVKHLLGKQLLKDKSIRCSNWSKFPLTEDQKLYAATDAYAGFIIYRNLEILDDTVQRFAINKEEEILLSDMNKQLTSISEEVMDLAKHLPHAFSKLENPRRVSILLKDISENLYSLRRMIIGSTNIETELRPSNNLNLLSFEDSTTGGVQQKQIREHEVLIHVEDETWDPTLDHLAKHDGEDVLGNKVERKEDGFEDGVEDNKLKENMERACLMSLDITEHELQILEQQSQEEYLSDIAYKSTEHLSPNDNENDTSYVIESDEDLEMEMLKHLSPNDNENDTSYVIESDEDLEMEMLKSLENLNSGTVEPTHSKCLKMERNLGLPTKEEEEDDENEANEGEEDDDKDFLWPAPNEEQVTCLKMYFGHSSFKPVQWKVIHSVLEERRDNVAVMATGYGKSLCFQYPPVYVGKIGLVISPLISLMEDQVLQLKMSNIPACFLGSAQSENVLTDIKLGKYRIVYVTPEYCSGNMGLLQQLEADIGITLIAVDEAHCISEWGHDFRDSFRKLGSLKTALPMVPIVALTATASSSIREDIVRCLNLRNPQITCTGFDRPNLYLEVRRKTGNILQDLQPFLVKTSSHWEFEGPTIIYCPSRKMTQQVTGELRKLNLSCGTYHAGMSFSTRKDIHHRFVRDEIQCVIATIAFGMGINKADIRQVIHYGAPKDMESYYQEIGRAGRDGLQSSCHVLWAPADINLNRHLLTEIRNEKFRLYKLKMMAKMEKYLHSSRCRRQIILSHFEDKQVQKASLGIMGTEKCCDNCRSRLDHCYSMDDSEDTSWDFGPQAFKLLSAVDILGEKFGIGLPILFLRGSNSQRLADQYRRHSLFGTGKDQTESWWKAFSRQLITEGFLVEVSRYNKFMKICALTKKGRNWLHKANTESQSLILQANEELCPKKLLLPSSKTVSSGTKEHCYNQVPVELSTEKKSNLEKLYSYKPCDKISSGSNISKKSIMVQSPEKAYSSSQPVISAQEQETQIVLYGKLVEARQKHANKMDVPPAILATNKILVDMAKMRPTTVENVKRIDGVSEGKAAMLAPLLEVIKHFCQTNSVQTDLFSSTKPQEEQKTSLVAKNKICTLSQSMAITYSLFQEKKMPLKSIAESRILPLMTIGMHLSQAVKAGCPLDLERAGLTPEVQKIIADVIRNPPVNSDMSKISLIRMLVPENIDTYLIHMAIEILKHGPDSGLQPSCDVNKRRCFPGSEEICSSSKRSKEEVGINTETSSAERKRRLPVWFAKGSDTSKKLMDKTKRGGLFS

As to `Cc1nc2cc(S(=O)(=O)N(C)c3ccc([C@H]4C[C@@H](N)C[C@@H](C(=O)Nc5ccc(C(F)(F)F)cc5F)[C@@H]4C(=O)O)cc3)ccc2n1C` (stereo in doubt) [Example 301, rel-(1R,2R,4R,6S)-4-amino-2-((2-fluoro-4-(trifluoromethyl)phenyl)carbamoyl)-6-(4-((N,1,2-trimethyl-1H-benzo[d]imidazole)-5-sulfonamido)phenyl)cyclohexane-1-carboxylic acid], in data set [1], the IC50 is 1.58 nM. Further, the fraction unbound at 4 h, 1 µM in data set [2] stood at 0.406. The CC50 was 1620 nM in data set [3], 3980 nM in data set [4] (setting [5]) and 3980 nM in data set [4] (setting [6]).

`CC(=O)N1C[C@H](c2ccc(N(C)S(=O)(=O)c3ccc4c(c3)nc(C)n4C)cc2)[C@@H](C(=O)O)[C@H](C(=O)Nc2ccc(C(F)(F)F)cc2F)C1` (stereo in doubt) [Example 310, rel-(3R,4S,5R)-1-acetyl-3-((2-fluoro-4-(trifluoromethyl)phenyl)carbamoyl)-5-(4-((N,1,2-trimethyl-1H-benzo[d]imidazole)-5-sulfonamido)phenyl)piperidine-4-carboxylic acid]: the IC50 in data set [1] was 1.58 nM. For the same molecule, the fraction unbound at 4 h, 1 µM in data set [2] was 0.273. Further, the values for the CC50 in data set [3], in data set [4] (setting [5]) and in data set [4] (setting [6]) were 437 nM, 1580 nM and 1580 nM, respectively.

Take `Cc1nc2cc(S(=O)(=O)N(C)c3ccc([C@H]4C[C@@H](OC(C)C)C[C@@H](C(=O)Nc5ccc(C(F)(F)F)cc5F)[C@@H]4C(=O)O)cc3)ccc2n1C` (stereo in doubt) [Example 311, rel-(1R,2R,4R,6S)-2-((2-fluoro-4-(trifluoromethyl)phenyl)carbamoyl)-4-isopropoxy-6-(4-((N,1,2-trimethyl-1H-benzo[d]imidazole)-5-sulfonamido)phenyl)cyclohexane-1-carboxylic acid]: the IC50 in data set [1] was 2.51 nM. In addition, the fraction unbound at 4 h, 1 µM in data set [2] was determined as 0.0856. Moreover, the CC50 is 21.4 nM in data set [3], 251 nM in data set [4] (setting [5]) and 251 nM in data set [4] (setting [6]).

In the case of `Cc1nc2cc(S(=O)(=O)N(C)c3ccc([C@H]4C[C@@H](OCC5CC5)C[C@@H](C(=O)Nc5ccc(C(F)(F)F)cc5F)[C@@H]4C(=O)O)cc3)ccc2n1C` (stereo in doubt) [Example 314, rel-(1R,2R,4R,6S)-4-(cyclopropylmethoxy)-2-((2-fluoro-4-(trifluoromethyl)phenyl)carbamoyl)-6-(4-((N,1,2-trimethyl-1H-benzo[d]imidazole)-5-sulfonamido)phenyl)cyclohexane-1-carboxylic acid], the IC50 in data set [1] was 1.58 nM. Also, the fraction unbound at 4 h, 1 µM in data set [2] is 0.0795. In addition, the figures for the CC50 in data set [3], in data set [4] (setting [5]) and in data set [4] (setting [6]) were 12.6 nM, 158 nM and 158 nM, respectively.

Regarding `COCCO[C@@H]1C[C@H](C(=O)Nc2ccc(C(F)(F)F)cc2F)[C@@H](C(=O)O)[C@H](c2ccc(N(C)S(=O)(=O)c3ccc4c(c3)nc(C)n4C)cc2)C1` (stereo in doubt) [Example 315, rel-(1R,2R,4R,6S)-2-((2-fluoro-4-(trifluoromethyl)phenyl)carbamoyl)-4-(2-methoxyethoxy)-6-(4-((N,1,2-trimethyl-1H-benzo[d]imidazole)-5-sulfonamido)phenyl)cyclohexane-1-carboxylic acid], the IC50 in data set [1] was 63.1 nM. In data set [2], the fraction unbound at 4 h, 1 µM is 0.384. The CC50 in data set [3] was 3800 nM; in data set [4] (setting [5]), 10000 nM.

As for `COCCO[C@@H]1C[C@H](c2ccc(N(C)S(=O)(=O)c3ccc4c(c3)nc(C)n4C)cc2)[C@@H](C(=O)O)[C@H](C(=O)Nc2ccc(C(F)(F)F)cc2F)C1` (stereo in doubt) [Example 316, rel-(1R,2R,4R,6S)-2-((2-fluoro-4-(trifluoromethyl)phenyl)carbamoyl)-4-(2-methoxyethoxy)-6-(4-((N,1,2-trimethyl-1H-benzo[d]imidazole)-5-sulfonamido)phenyl)cyclohexane-1-carboxylic acid], in data set [1], the IC50 was 1.58 nM. Besides, the fraction unbound at 4 h, 1 µM in data set [2] was determined as 0.19. Also, the results for the CC50 in data set [3], in data set [4] (setting [5]) and in data set [4] (setting [6]) were 30.2 nM, 158 nM and 158 nM, respectively.

Turning to `Cc1nc2cc(S(=O)(=O)N(C)c3ccc([C@H]4C[C@@H](OC[C@H]5CCOC5)C[C@@H](C(=O)Nc5ccc(C(F)(F)F)cc5F)[C@@H]4C(=O)O)cc3)ccc2n1C` (stereo in doubt) [Example 317, (1R*,2R*,4R*,6S*)-2-((2-fluoro-4-(trifluoromethyl)phenyl)carbamoyl)-4-(((S)-tetrahydrofuran-3-yl)methoxy)-6-(4-((N,1,2-trimethyl-1H-benzo[d]imidazole)-5-sulfonamido)phenyl)cyclohexane-1-carboxylic acid], the IC50 in data set [1] is 1.58 nM. The fraction unbound at 4 h, 1 µM in data set [2] stood at 0.15. Besides, the CC50 in data set [3] is 12 nM; in data set [4] (setting [5]), 79.4 nM; in data set [4] (setting [6]), 79.4 nM.

In the case of `Cc1nc2cc(S(=O)(=O)N(C)c3ccc([C@H]4C[C@@H](OC[C@@H]5CCOC5)C[C@@H](C(=O)Nc5ccc(C(F)(F)F)cc5F)[C@@H]4C(=O)O)cc3)ccc2n1C` (stereo in doubt) [Example 320, (1R*,2R*,4R*,6S*)-2-((2-fluoro-4-(trifluoromethyl)phenyl)carbamoyl)-4-(((R)-tetrahydrofuran-3-yl)methoxy)-6-(4-((N,1,2-trimethyl-1H-benzo[d]imidazole)-5-sulfonamido)phenyl)cyclohexane-1-carboxylic acid], the IC50 in data set [1] was 3.98 nM. Moreover, the fraction unbound at 4 h, 1 µM in data set [2] was found to be 0.112. Also, the figures for the CC50 in data set [3], in data set [4] (setting [5]) and in data set [4] (setting [6]) were 8.91 nM, 79.4 nM and 79.4 nM, respectively.

As for `Cc1nc2cc(S(=O)(=O)N(C)c3ccc([C@@H]4C[C@H](O[C@@H]5CCOC5)C[C@H](C(=O)Nc5ccc(C(F)(F)F)cc5F)[C@H]4C(=O)O)cc3)ccc2n1C` (stereo in doubt) [Example 322, (1R*,2R*,4R*,6S*)-2-((2-fluoro-4-(trifluoromethyl)phenyl)carbamoyl)-4-(((R)-tetrahydrofuran-3-yl)oxy)-6-(4-((N,1,2-trimethyl-1H-benzo[d]imidazole)-5-sulfonamido)phenyl)cyclohexane-1-carboxylic acid], the IC50 in data set [1] was 20 nM. Further, the fraction unbound at 4 h, 1 µM in data set [2] is 0.362. Besides, the CC50 is 3630 nM in data set [3] and 10000 nM in data set [4] (setting [5]).

On to `Cc1nc2cc(S(=O)(=O)N(C)c3ccc([C@H]4C[C@@H](O[C@H]5CCOC5)C[C@@H](C(=O)Nc5ccc(C(F)(F)F)cc5F)[C@@H]4C(=O)O)cc3)ccc2n1C` (stereo in doubt) [Example 323, (1R*,2R*,4R*,6S*)-2-((2-fluoro-4-(trifluoromethyl)phenyl)carbamoyl)-4-(((S)-tetrahydrofuran-3-yl)oxy)-6-(4-((N,1,2-trimethyl-1H-benzo[d]imidazole)-5-sulfonamido)phenyl)cyclohexane-1-carboxylic acid], for which the IC50 in data set [1] was 1.58 nM. For the same molecule, the fraction unbound at 4 h, 1 µM in data set [2] turned out to be 0.144. The CC50 in data set [3] was 14.5 nM; in data set [4] (setting [5]), 100 nM; in data set [4] (setting [6]) it was 100 nM.

Consider `Cc1nc2cc(S(=O)(=O)N(C)c3ccc([C@H]4C[C@@H](OC5CCC5)C[C@@H](C(=O)Nc5ccc(C(F)(F)F)cc5F)[C@@H]4C(=O)O)cc3)ccc2n1C` (stereo in doubt) [Example 325, rel-(1R,2R,4R,6S)-4-cyclobutoxy-2-((2-fluoro-4-(trifluoromethyl)phenyl)carbamoyl)-6-(4-((N,1,2-trimethyl-1H-benzo[d]imidazole)-5-sulfonamido)phenyl)cyclohexane-1-carboxylic acid], for which the IC50 in data set [1] is 2 nM. Moreover, the fraction unbound at 4 h, 1 µM in data set [2] is 0.0862. Besides, the CC50 in data set [3] is 17.4 nM; in data set [4] (setting [5]) it was 200 nM; in data set [4] (setting [6]), 200 nM.

On to `Cc1nc2cc(S(=O)(=O)N(C)c3ccc([C@H]4C[C@@H](OC[C@@H]5COCCO5)C[C@@H](C(=O)Nc5ccc(C(F)(F)F)cc5F)[C@@H]4C(=O)O)cc3)ccc2n1C` (stereo in doubt) [Example 329, (1R*,2R*,4R*,6S*)-4-(((S)-1,4-dioxan-2-yl)methoxy)-2-((2-fluoro-4-(trifluoromethyl)phenyl)carbamoyl)-6-(4-((N,1,2-trimethyl-1H-benzo[d]imidazole)-5-sulfonamido)phenyl)cyclohexane-1-carboxylic acid], for which the IC50 in data set [1] is 1.58 nM. The fraction unbound at 4 h, 1 µM in data set [2] is 0.205. For the same molecule, the CC50 in data set [3] is 12.9 nM; in data set [4] (setting [5]) it was 63.1 nM; in data set [4] (setting [6]), 63.1 nM.

Source of the values: patent US12662451B2, “Chemical compounds and uses thereof” (GLAXOSMITHKLINE INTELLECTUAL PROPERTY (NO.4) LIMITED, priority 2023, dated 2026).
